Measurements reported in article PMC7048787, “MCL1 binding to the reverse BH3 motif of P18INK4C couples cell survival to cell proliferation” (Cell Death & Disease, 2020).

T1: P18 protein (human P18INK4C residues 1-168), recombinant (human, UniProt P42773 1-168)
T1 construct: Human P18 (P18INK4C, CDKN2C), residues 1-168, called full-length P18 protein in the results; The purification of this protein is not described; only that of His6-MCL1 is; also called CDKN2C; full-length P18 protein; source: E. coli BL21(DE3), recombinant
T1 sequence (looked up): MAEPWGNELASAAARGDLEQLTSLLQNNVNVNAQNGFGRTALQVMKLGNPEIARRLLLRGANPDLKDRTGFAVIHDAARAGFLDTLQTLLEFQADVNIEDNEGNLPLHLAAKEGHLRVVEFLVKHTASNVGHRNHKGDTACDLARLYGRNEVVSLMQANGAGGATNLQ

B1: His6-MCL1 (human MCL1 residues 163-326) (domain or fragment, UniProt Q07820 163-326, looked up)
chain: TPPPAEEEEDELYRQSLEIISRYLREQATGAKDTKPMGRSGATSRKALETLRRVGDGVQRNHETAFQGMLRKLDIKNEDDVKSLSRVMIHVFSDGVTNWGRIVTLISFGAFVAKHLKTINQESCIEPLAESITDVLVRTKRDWLVKQRGWDGFVEFFHVEDLEG
notes: Named His6-MCL1 in the FPA; called rMCL1 in the pull-downs; also called His-MCL1; recombinant MCL1; source: E. coli BL21(DE3), purified (nickel column, gel filtration); not shown: His6, N-terminal, kept
B2: P18-ANK4-5 (P18 residues 106-168) (domain or fragment, human, UniProt P42773 106-168, looked up)
chain: PLHLAAKEGHLRVVEFLVKHTASNVGHRNHKGDTACDLARLYGRNEVVSLMQANGAGGATNLQ
notes: Human P18 (P18INK4C), residues 106-168: ankyrin repeats 4 and 5, with the rBH3 motif; also called A4-5; source: E. coli BL21(DE3), recombinant
B3: Chimeric protein of P16-ANK1-3 and P18-ANK4-5 (P16 residues 1-113 and P18 residues 106-168) (other, human, UniProt P42771 1-113, looked up)
chain: MEPAAGSSMEPSADWLATAAARGRVEEVRALLEAGALPNAPNSYGRRPIQVMMMGSARVAELLLLHGAEPNCADPATLTRPVHDAAREGFLDTLVVLHRAGARLDVRDAWGRLPLHLAAKEGHLRVVEFLVKHTASNVGHRNHKGDTACDLARLYGRNEVVSLMQANGAGGATNLQ
notes: Human P18 (P18INK4C), residues 106-168 (ankyrin repeats 4-5 with the rBH3 motif); also called AC; chimera; source: E. coli BL21(DE3), recombinant

What was measured:
[1] = test system: WAC2 cells (MCL1 overexpressed); test: PI DNA content flow cytometry, cell cycle population of MCL1-overexpressing WAC2 cells treated with BH3 mimetics; type: cell-based, human; conditions: PI staining, N = 3, Fig. 6a; for effect on MCL1 overexpression induced decrease in G1 population: WAC2, MCL1 plasmid, then BH3 mimetic for 18 h, final DMSO 0.5%
[2] = test system: recombinant MCL1 (rMCL1); test: In vitro pulldown of recombinant MCL1 by recombinant P18/P16 constructs; type: binding, human; conditions: recombinant P18 (IP) with rMCL1 (IB) with and without MCL1 inhibitor, Fig. 2c
From the text: Human MCL1 [Uniprot: Q07820] (residues 163–326), human P18 [Uniprot: P42773] (residues 1–168), A1–4 (P18 residues 1–140), A4–5 (P18 residues 106–168), P16 [Uniprot: P42771] (residues 1–156), and AC (P16 residues 1–113 and P18 residues 106–168) were sequence-optimized for bacterial expression and cloned into the restriction sites of NdeI and HindIII in a pET28a vector (EMD Millipore) to incorporate a N-terminal hexa-histidine (His6) tag and transformed into BL21(DE3) E. Coli (New England Bio Labs). Cultures were grown under kanamycin selection in Luria broth to a 600 nm optical density of 0.6 and expression was induced by addition of 1 mM isopropyl β-D-1-thiogalactopyranoside (Thermo Fisher). Cultures were harvested 3–4 h after induction by centrifugation at 4700 × g. Resulting bacterial pellets were stored at −80 °C. His6-MCL1 bacterial pellets were re-suspended (10 mL/wet g of pellet) in Buffer A (1 × PBS, pH 6.8) with the addition of 1× lysozyme (0.25 mg/mL) (Thermo Fisher) and 1 protease inhibitor tablet (Pierce #88266), sonicated, and cleared at 14,000 × g. Resulting lysate was purified on NGC FPLC (Bio-Rad Laboratories) using a 1 mL HiTrap HP nickel column (GE Healthcare) equilibrated with Buffer A. Protein was eluted with a 2 mM–1000 mM imidazole gradient. His-MCL1 containing fractions, as identified by denaturing polyacrylamide gel electrophoresis, were further purified by gel filtration in Buffer B (1× PBS, pH 6.8) on a HiPrep 16/60 Sephacryl S-100 column (GE Healthcare). Resulting protein identity was confirmed by matrix-assisted laser desorption/ionization (MALDI) mass spectrometry.
Fig. 2 MCL1 binds specifically to P18 through C-terminal rBH3. a Western blot of endogenous coIP of MCL1 (IP) with P18 (IB), BAX (IB), and P18 (IB) in WAC2. b Western blot of in vitro pulldown of recombinant proteins (IP), ANK1–4, ANK4–5, P18, p16, and chimera, with recombinant MCL1 (rMCL1) (IB). Cartoon of the p16, P18, and chimera proteins are shown below the blot. rBH3-containing helix is highlighted in yellow (Residues: 150–161). c Western blot of in vitro pulldown of recombinant P18 (IP) with rMCL1 (IB) with and without MCL1 inhibitor S63845.
P18 is a member of the INK4 protein family [P16INK4A (P16, CDKN2A), P15INK4B (P15, CDKN2B), P18INK4C (P18, CDKN2C), and P19INK4D (P19, CDKN2D)] that regulate G1/S cell cycle progression with all INK4 proteins retaining homologous CDK4/6 inhibitory function. INK4 family proteins have homologous structures containing either four or five ankyrin (ANK) repeats, a helix-turn-helix structural unit known to mediate protein-protein interactions[15],[17]. […] The rBH3 in P18 resides in its fifth ankyrin repeat (residues 141–168). […] Based on prior stability studies of ankyrin repeats within INK4 family proteins[18],[19], we designed two truncations of P18 (Supplementary Table S1). The first, P18-ANK1–4 (ANK1–4), removes the rBH3-containing fifth ankyrin repeat. The second, P18-ANK4–5 (ANK4–5), retains the rBH3 domain as well as ankyrin repeat 4 to facilitate folding.

[3] = test system: MCL1 protein in PC3 and WAC2 cells; test: Western blot of MCL1 protein in treated cells; type: cell-based, human; conditions: PC3 or WAC2 cells, 4 h, 10 µM LeuP, 30 µM BTZ or 10 µM LeuP + 30 µM BTZ (Fig. 5), BTZ 10, 20 or 30 µM in PC-3 (Fig. S4), N = 3
Experimental: (§1) Whole-cell lysates were prepared by lysing cells on ice with 1× RIPA buffer (Boston BioProducts): 50 mM Tris-HCl pH 7.4, 150 mM NaCl, 1% NP40, 0.5% sodium deoxycholate and water (rest) supplemented with protease inhibitors (1 mM AEBSF, 0.8 μM aprotinin, 0.05 mM bestatin, 0.015 mM E-64, 0.02 mM leupeptin, 0.01 mM pepstatin A). Protein lysates were resolved by sodium dodecyl sulfate–polyacrylamide gel electrophoresis and transferred to polyvinylidene fluoride membrane in a wet transfer system for 1 h at 100 V. Membranes were incubated with anti-MCL1 Abs (D2W9E and D35A5, Cell Signaling), anti-BAX Abs (D2E11, Cell Signaling), anti-P18 Abs, DCS-118 from Cell Signaling, anti-β-actin Abs, PA1–21167, from Pierce (Rockford, IL, USA), and anti-CDK6 Ab, (C-21): sc-177 from Santa Cruz at a dilution of 1:1000, at 4 °C overnight. HRP-conjugated secondary Abs were used for detection using ECL2 reagent (Pierce). Immunoblots were visualized on Bio-Rad ChemiDoc MP imaging system.
Fig. 5 MCL1 impact on P18 degradation. […] Quantification of band intensity shown below blot. […] The statistical significance was determined by unpaired Student t-test where […].
Figure S4. […] Quantification of band intensity shown below blot. […] The statistical significance was determined by unpaired Student t-test where *P<0.05; **P<0.01; ***P<0.001.

[4] = test system: P18 protein in PC3 and WAC2 cells; test: Western blot of P18 protein in treated cells; type: cell-based, human; conditions: for P18 protein level: Western blot, PC3 or WAC2 cells, 4 h, 10 µM LeuP, 30 µM BTZ or 10 µM LeuP + 30 µM BTZ (Fig. 5), BTZ 10, 20 or 30 µM in PC-3 (Fig. S4), N = 3
Experimental: as §1
Fig. 5 MCL1 impact on P18 degradation. Western blot of DMSO control (0.3%), 10 µM leupeptin (LeuP), 10 µM LeuP + 30µM bortezomib (BTZ), or 30 µM BTZ treated (a) PC3 cells or (b) WAC2 cells for 4 h. Quantification of band intensity shown below blot. All data are presented as mean ± S.D., N = 3. The statistical significance was determined by unpaired Student t-test where […].
Figure S4. Bortezomib inversely impacts MCL1 and P18. Western blot of bortezomib treated PC-3 cells (10, 20, or 30 uM) for 4 hours. Quantification of band intensity shown below blot. All data are presented as mean ± S.D., N=3. The statistical significance was determined by unpaired Student t-test where *P<0.05; **P<0.01; ***P<0.001.

[5] = target: T1, P18 protein (human P18INK4C residues …); test: pull-down; in vitro pulldown of recombinant P18, P16, truncated and chimeric proteins (IP) with recombinant MCL1 (IB); conditions: both partners purified
[6] = target: B1; test: as above; conditions: both partners purified

Molecule: Cc1c(-c2c(-c3ccc(F)o3)sc3ncnc(O[C@H](Cc4ccccc4OCc4ccnn4CC(F)(F)F)C(=O)O)c23)ccc(OCCN2CCN(C)CC2)c1Cl [S63845]
- effect on MCL1 overexpression induced decrease in G1 population [1]: rescued the MCL1 overexpression induced decrease in G1 population back to control levels
- disruption of P18 pulldown of MCL1 [2]: suppressed the ability of P18 to pull-down MCL1

Molecule: CC(=O)N[C@@H](CC(C)C)C(=O)N[C@@H](CC(C)C)C(=O)N[C@H](C=O)CCCNC(=N)N [leupeptin]
- MCL1 protein level [3]: marginal to no impact
- P18 protein level [4]: marginal to no impact

Molecule: CC1(C)CCC(CN2CCN(c3ccc(C(=O)NS(=O)(=O)c4ccc(NCC5CCOCC5)c([N+](=O)[O-])c4)c(Oc4cnc5[nH]ccc5c4)c3)CC2)=C(c2ccc(Cl)cc2)C1 [ABT-199]
- impact on sub-G1 cell population ([1]; WAC2, MCL1 overexpressed, BH3 mimetic 18 h): more significant impact on the sub-G1 cell population
- effect on MCL1 overexpression induced decrease in G1 population [1]: no impact on the change in G1 population

Molecule: CC(C)C[C@H](NC(=O)[C@H](Cc1ccccc1)NC(=O)c1cnccn1)B(O)O [bortezomib]
- MCL1 protein level [3]: increase in MCL1 protein
- P18 protein level [4]: decrease in P18 protein
- effect of bortezomib on MCL1-induced loss of P18 protein ([4]; proteasome inhibitor bortezomib, Fig. 5 and Fig. S4): does not rescue this effect

Molecule: B1
- binding result [5]: binds

Molecule: B2
- binding result [6]: binds

Molecule: B3
- binding result [6]: binds
